# pIC50: −log10 of the molar value. Values joined by “and” are separate entries in the source; they are usually repeats but may differ in a detail not shown here. Equal values may be shown once.
# Tested on: K24384-001-R-PDC complex spheroid growth
# Assay: Anticancer human tumor K24384-001-R-PDC patient-derived pancreatic adenocarcinoma cell line growth inhibition [AhR]
# Settings: for viability, T/C: stronger effect = lower value
# Excerpt: Multicellular complex tumor spheroid response to aryl hydrocarbon receptor antagonists in combination with a variety of drugs and investigational agents in selected tumor cell lines
# The current study was undertaken to assess response to aryl hydrocarbon receptor antagonists in combination with standard-of-care drugs and investigational agents in solid tumor complex spheroid models. Complex spheroids include a stromal component modeled by human endothelial cells (HUVEC) and fibroblasts modeled by human mesenchymal stem cells (MSCs). The concentration ranges selected for each drug and investigational agent were based upon clinically achievable concentrations if the clinical Cmax of the agent was known.
# Compounds. The drugs and investigational agents: BAY 2416964 (NSC825713), GNF351 (NSC835774), CH-223191 (NSC835775), CPI-455 (NSC825282), aza-TdCyd (NSC777586), decitabine (NSC127716), belinostat (NSC758774), entinostat (NSC756642), pevonedistat (NSC761192), tazemetostat (NSC777109), talazoparib (NSC765396), olaparib (NSC753686), selinexor (NSC780203), nedisertib (M3814, NSC802822), bortezomib (NSC756655), venetoclax (NSC766270), doxorubicin (NSC123127), elimusertib (BAY189344, NSC800525), ceralasertib (AZD6738, NSC777638), TAK-243 (NSC785004), alisertib (NSC759677), etoposide (NSC141540), topotecan (NSC609699), eribulin (NSC707389), gemcitabine (NSC613327), carboplatin (NSC241240), cisplatin (NSC119875), and SN-38 (NSC673596) were obtained from the National Cancer Institute (NCI) Developmental Therapeutics Program Chemical Repository (32). The FDA-approved anticancer drug set is available from the Developmental Therapeutics Program at https://dtp.cancer.gov/organization/dscb/obtaining/available plates.htm. […] The stock solutions were prepared in dimethyl sulfoxide (DMSO, Sigma-Aldrich, St. Louis, MO, cat. D2650), except for the platinum compounds which were prepared in saline (Quality Biological, Gaithersburg, MD, cat. 114-055-101), at 800-fold the tested concentration and stored at -70 degrees C prior to their use. All drugs and investigational agents were tested over a range starting from a high concentration at or near the clinical Cmax and decreasing in half-log increments. If the clinical Cmax for an agent had not been determined, the highest concentration tested was 10 microM (Table 1).
# Cell Culture. All cells were maintained in an incubator at 37 degrees C and 5% CO2 with 95% humidity. The PDC lines were cultured according to standard operating procedures established by the NCI PDMR (https://pdmr.cancer.gov). Briefly, all PDCs were thawed and cultured in Matrigel-coated flasks prepared with a working solution of 1X Ham's F-12 nutrient mix, without supplementation (Invitrogen, Waltham, MA, cat. 11765054), 100 U/mL penicillin-streptomycin (Invitrogen, cat. 15140122), and 2.5% Matrigel (Corning Inc., Corning, NY, cat. 354248) for the first three passages. All PDCs were cultured in complete DMEM/F-12 media containing advanced DMEM/F-12 (Invitrogen, cat. 12634028), 4.9% defined fetal bovine serum, heat inactivated (HyClone Laboratories Inc., Logan, UT, cat. SH30070.03HI), 389 ng/mL hydrocortisone (Sigma-Aldrich, cat. H4001), 9.7 ng/mL human EGF recombinant protein (Invitrogen, cat. PHG0313), 23.4 microg/mL adenine (Sigma-Aldrich, cat. A2786), 97.3 U/mL penicillin-streptomycin (Invitrogen, cat. 15140122), 1.9 mM L-glutamine (Invitrogen, cat. 25030081), and 9.7 microM Y-27632 dihydrochloride (Tocris Bioscience, Bristol, United Kingdom, cat. 1254). The PDCs were cultured in complete DMEM/F12 media without 10 microM Y-27632 dihydrochloride for at least two passages prior to the screen. The established cell lines NCI-H1341 and […] were cultured in DMEM/F-12, HEPES (Invitrogen, cat. 11330032), 5% defined fetal bovine serum (HyClone Laboratories Inc., cat. SH30070.03), ITS premix universal culture supplement [insulin (5 microg/mL), transferrin (5 microg/mL), and selenious acid (5 ng/mL)] […]
# 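For viability, T/C in this document: percent of DMSO vehicle-treated spheroid viability set as 100%.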
SMILES,pIC50 (curve of compound),"viability, T/C (compound 0.0316 µM)","viability, T/C (compound 0.1 µM)","viability, T/C (compound 0.316 µM)","viability, T/C (compound 1 µM)","viability, T/C (compound 3.16 µM)","viability, T/C (compound 10 µM)",also measured
COc1cccc2c1C(=O)c1c(O)c3c(c(O)c1C2=O)CC(O)(C(=O)CO)CC3OC1CC(N)C(O)C(C)O1 (stereo not drawn),7.26 and 7.32 and 6.90,55.9% and 53.8% and 60.3%,42.6% and 43.3% and 55.6%,27.5% and 27% and 27.3%,7.51% and 8.21% and 8.1%,2.73% and 2.56% and 3.17%,7.73% and 8.61% and 11.3%,
Cc1ccccc1N=Nc1ccc(NC(=O)c2ccnn2C)c(C)c1,,,,,,,,"pIC50 (compound alone, run of 06/14/2022): < 5.00"
Cc1cncc(-c2nc(NCCc3c[nH]c4ccccc34)c3ncn(C(C)C)c3n2)c1,,,,,,,10.4% [middle of 20 runs],"IC50 (compound alone, run of 06/06/2022): 5.54 µM [middle of 23 runs]"
Cn1ncnc1C1c2n[nH]c(=O)c3cc(F)cc(c23)NC1c1ccc(F)cc1 (stereo not drawn),< 7.00,97% and 97.8% and 98.7%,82% and 81.5% and 75.4%,,,,,"viability, T/C (compound 0.000316 µM): 104% and 93.7% and 94.2%; viability, T/C (compound 0.001 µM): 117% and 105% and 102%; viability, T/C (compound 0.00316 µM): 93.1% and 104% (2×); viability, T/C (compound 0.01 µM): 91.7% and 102% and 105%"
Nc1ccn(C2OC(CO)C(O)C2(F)F)c(=O)n1 (stereo not drawn),6.34 and 6.38 and 6.72,75.8% and 84.6% and 71%,67.7% and 76.7% and 59.5%,50.6% and 52.6% and 41.6%,42.8% and 39.7% and 32.8%,37.3% and 40.7% and 22.7%,28.5% and 31.3% and 20.2%,
Nc1ncn(C2CC(O)C(CO)O2)c(=O)n1 (stereo not drawn),< 6.00,108% and 95.7% and 101%,95.2% and 101% and 82.9%,87.2% and 88.8% and 84.9%,79.4% and 79.5% and 76.8%,,,"viability, T/C (compound 0.00316 µM): 111% and 99.4% and 104%; viability, T/C (compound 0.01 µM): 94.1% and 108% and 112%"
Nc1ncn(C2CC(O)C(CO)S2)c(=O)n1 (stereo not drawn),< 6.52,,,,,,,"viability, T/C (compound 0.000949 µM): 110% and 102% and 115%; viability, T/C (compound 0.003 µM): 104% and 111% and 121%; viability, T/C (compound 0.00949 µM): 105% and 93% and 90.2%; viability, T/C (compound 0.03 µM): 98% and 87.8% and 92.5%; viability, T/C (compound 0.0949 µM): 80.2% and 77.9% and 76.2%; viability, T/C (compound 0.3 µM): 81.4% and 64.2% and 70.1%"
O=C(C=Cn1cnc(-c2cc(C(F)(F)F)cc(C(F)(F)F)c2)n1)NNc1cnccn1,6.61 and 6.37,,,,,,,"viability, T/C (compound 0.00949 µM): 103% and 108% and 124%; viability, T/C (compound 0.03 µM): 102% and 118% and 111%; viability, T/C (compound 0.0949 µM): 83.7% and 73.7% and 79.4%; viability, T/C (compound 0.3 µM): 42.4% and 48.4% and 54.7%; viability, T/C (compound 0.949 µM): 29.9% and 28.1% and 41.4%; viability, T/C (compound 3 µM): 22.9% and 24.3% and 29.5%"

# Now from value to molecule, other results behind:
pIC50 (curve of compound),SMILES,"viability, T/C (compound 0.0316 µM)","viability, T/C (compound 0.1 µM)","viability, T/C (compound 0.316 µM)","viability, T/C (compound 1 µM)","viability, T/C (compound 3.16 µM)","viability, T/C (compound 10 µM)",also measured
5.59 and 5.85 and 5.56,NS(=O)(=O)OCC1CC(n2ccc3c(NC4CCc5ccccc54)ncnc32)CC1O (stereo not drawn),102% and 101% and 100%,119% and 96.5% and 107%,107% (2×) and 102%,95.7% and 59% and 75.3%,40.4% and 32.9% and 49.2%,27.5% and 21.6% and 24.1%,
5.59 and 5.64 and 5.67,Nc1ccccc1NC(=O)c1ccc(CNC(=O)OCc2cccnc2)cc1,94% and 112% and 106%,98% and 108% and 107%,85% and 93.4% and 96.5%,78.2% and 67.5% and 60.9%,43.8% and 43.9% and 45.6%,8.72% and 6.99% and 9.95%,
5.68 and 5.64 and 5.70,O=C(C=Cc1cccc(S(=O)(=O)Nc2ccccc2)c1)NO,104% and 118% and 108%,104% and 115% and 114%,96.2% and 116% and 99.6%,78.5% and 87.3% and 81.8%,34.4% and 35.4% and 29.5%,8.12% and 8.37% and 2.97%,
< 5.00,O=C(c1cc(Cc2n[nH]c(=O)c3ccccc23)ccc1F)N1CCN(C(=O)C2CC2)CC1,104% and 103% and 116%,132% and 100% and 105%,105% and 95.4% and 115%,95.4% and 94.5% and 90.4%,88.2% and 96.2% and 90.5%,82.8% and 62.4% and 76%,

# Source: PubChem BioAssay AID1919009 (Molecular Pharmacology Branch, DTP, NCI, 2023)
